From PubChem BioAssay AID248 (DTP/NCI, 2004)
Where “and” joins values, the source holds several entries; their conditions need not be identical. Identical values can stand only once. Inconclusive results and toxic doses are left out. No stated cut-off is given here; in the data, active means T/C of 150% or more; inactive means T/C below 125%.

Test system: L1210 leukemia ip in BDF1 mice, survival T/C
Test: NCI In Vivo Anticancer Drug Screen. Data for tumor model L1210 Leukemia (intraperitoneal) in B6D2F1 (BDF1) mice
Conditions: endpoint: mean survival time, higher = longer survival
How it was run: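 Each compound was tested against a transplantable tumor grown in mice. The endpoint was survival, with treated animals benchmarked against vehicle controls as a simple ratio.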

[1] = dose: 75.0 mg/kg/injection, schedule: Q01DX001 (ip), vehicle: other
[2] = dose: 150.0 mg/kg/injection, schedule: Q01DX001 (ip), vehicle: other
[3] = dose: 300.0 mg/kg/injection, schedule: Q01DX001 (ip), vehicle: other
[4] = dose: 100.0 mg/kg/injection, schedule: Q01DX001 (ip), vehicle: saline
[5] = dose: 200.0 mg/kg/injection, schedule: Q01DX001 (ip), vehicle: saline
[6] = dose: 400.0 mg/kg/injection, schedule: Q01DX001 (ip), vehicle: saline
[7] = dose: 100.0 mg/kg/injection, schedule: Q04DX003 (ip), vehicle: Klucel (hydroxypropylcellulose) (HPC)
[8] = dose: 200.0 mg/kg/injection, schedule: Q04DX003 (ip), vehicle: Klucel (hydroxypropylcellulose) (HPC)
[9] = dose: 400.0 mg/kg/injection, schedule: Q04DX003 (ip), vehicle: Klucel (hydroxypropylcellulose) (HPC)
[10] = dose: 25.0 mg/kg/injection, schedule: Q04DX003 (ip), vehicle: saline
[11] = dose: 50.0 mg/kg/injection, schedule: Q01DX009 (ip), vehicle: saline
[12] = dose: 50.0 mg/kg/injection, schedule: Q04DX003 (ip), vehicle: saline
[13] = dose: 100.0 mg/kg/injection, schedule: Q04DX003 (ip), vehicle: saline
[14] = dose: 100.0 mg/kg/injection, schedule: Q01DX009 (ip), vehicle: Klucel (hydroxypropylcellulose) (HPC)
[15] = dose: 200.0 mg/kg/injection, schedule: Q01DX009 (ip), vehicle: Klucel (hydroxypropylcellulose) (HPC)
[16] = dose: 100.0 mg/kg/injection, schedule: Q01DX009 (ip), vehicle: saline with Tween-80
[17] = dose: 200.0 mg/kg/injection, schedule: Q01DX009 (ip), vehicle: saline with Tween-80
[18] = dose: 400.0 mg/kg/injection, schedule: Q01DX009 (ip), vehicle: saline with Tween-80

Measured: T/C

CCOC(=O)C12CCCC1=CC(=O)CC2 (centres undefined)
inactive: dose: 100.0 mg/kg/injection, schedule: Q04DX002 (ip), vehicle: Klucel (hydroxypropylcellulose) (HPC) 107 % of control | dose: 200.0 mg/kg/injection, schedule: Q04DX002 (ip), vehicle: Klucel (hydroxypropylcellulose) (HPC) 121 % of control | dose: 400.0 mg/kg/injection, schedule: Q04DX002 (ip), vehicle: Klucel (hydroxypropylcellulose) (HPC) 104 % of control

C/C=C(\CC)C1(CCC)C(=O)NC(=O)N(C)C1=O (centres undefined)
inactive: [1] 103 % of control | dose: 75.0 mg/kg/injection, schedule: Q01DX001 (ip), vehicle: saline 95 % of control | [2] 103 % of control | dose: 150.0 mg/kg/injection, schedule: Q01DX001 (ip), vehicle: saline 106 % of control | [3] 101 % of control | dose: 300.0 mg/kg/injection, schedule: Q01DX001 (ip), vehicle: saline 106 % of control

NC1CCCCC1.[I][Pb]([I])([I])[I]
inactive: dose: 100.0 mg/kg/injection, schedule: Q04DX003 (ip), vehicle: saline with Tween-80 106 % of control | dose: 200.0 mg/kg/injection, schedule: Q04DX003 (ip), vehicle: saline with Tween-80 95 % of control | dose: 400.0 mg/kg/injection, schedule: Q04DX003 (ip), vehicle: saline with Tween-80 96 % of control

CCCCc1ccccn1
inactive: [4] 96 % of control

CC(=O)NC(C(O)CC(=O)C(=O)O)C(O)C(O)C(O)CO (centres undefined) (tested in a mixture with another compound)
inactive: [4] 102 % of control | [5] 100 % of control | [6] 102 % of control

CC1CC(C)(C)CC2(C1)OCC(CCl)O2 (centres undefined)
inactive: dose: 100.0 mg/kg/injection, schedule: Q04DX003 (ip), vehicle: saline sonified 100 % of control | dose: 200.0 mg/kg/injection, schedule: Q04DX003 (ip), vehicle: saline sonified 98 % of control | dose: 400.0 mg/kg/injection, schedule: Q04DX003 (ip), vehicle: saline sonified 96 % of control

NOC(=O)C(O)(c1ccccc1)C1CCCCC1 (centres undefined)
inactive: [1] 104 % of control | [2] 98 % of control | [3] 98 % of control

CCSC1OC(C(COC(C)=O)OC(C)=O)C(OC(C)=O)C1NC(C)=O (centres undefined)
inactive: dose: 50.0 mg/kg/injection, schedule: Q01DX001 (ip), vehicle: saline 103 % of control | [4] 110 % of control | [5] 97 % of control | [6] 100 % of control

C=CCc1cc2c(C)cc(=O)oc2c(C)c1OC(C)=O
inactive: dose: 100.0 mg/kg/injection, schedule: Q01DX009 (ip), vehicle: gum acacia 100 % of control | dose: 100.0 mg/kg/injection, schedule: Q04DX003 (ip), vehicle: gum acacia 98 % of control | dose: 200.0 mg/kg/injection, schedule: Q01DX009 (ip), vehicle: gum acacia 96 % of control | dose: 200.0 mg/kg/injection, schedule: Q04DX003 (ip), vehicle: gum acacia 103 % of control | dose: 400.0 mg/kg/injection, schedule: Q01DX009 (ip), vehicle: gum acacia 91 % of control | dose: 400.0 mg/kg/injection, schedule: Q04DX003 (ip), vehicle: gum acacia 90 % of control

Oc1c(Br)cc(-c2ccccc2)cc1Br
inactive: dose: 100.0 mg/kg/injection, schedule: Q04DX002 (ip), vehicle: gum acacia 95 % of control | dose: 200.0 mg/kg/injection, schedule: Q04DX002 (ip), vehicle: gum acacia 95 % of control | dose: 400.0 mg/kg/injection, schedule: Q04DX002 (ip), vehicle: gum acacia 103 % of control

CCC(Sc1ccccc1[N+](=O)[O-])[N+](=O)[O-] (centres undefined)
inactive: [7] 105 % of control | [8] 95 % of control | [9] 100 % of control

Cc1ccc(C(C)CC(=O)O)cc1 (centres undefined)
inactive: dose: 100.0 mg/kg/injection, schedule: Q01DX001 (ip), vehicle: carboxymethylcellulose (CMC) 101 % of control | dose: 200.0 mg/kg/injection, schedule: Q01DX001 (ip), vehicle: carboxymethylcellulose (CMC) 95 % of control | dose: 400.0 mg/kg/injection, schedule: Q01DX001 (ip), vehicle: carboxymethylcellulose (CMC) 93 % of control

CC(=O)Oc1ccc2ccccc2c1/C=C/c1ccncc1
inactive: dose: 6.25 mg/kg/injection, schedule: Q01DX009 (ip), vehicle: saline 104 % of control | dose: 12.5 mg/kg/injection, schedule: Q01DX009 (ip), vehicle: saline 102 % of control | dose: 25.0 mg/kg/injection, schedule: Q01DX009 (ip), vehicle: saline 96 % of control and 105 % of control | [10] 115 % of control | [11] 95 % of control | [12] 93 % of control | [13] 94 % of control and 90 % of control

NS(=O)(=O)c1ccc(Br)cc1
inactive: [10] 106 % of control | [12] 97 % of control | [13] 100 % of control | dose: 150.0 mg/kg/injection, schedule: Q04DX003 (ip), vehicle: saline 105 % of control | dose: 225.0 mg/kg/injection, schedule: Q04DX003 (ip), vehicle: saline 102 % of control | dose: 335.0 mg/kg/injection, schedule: Q04DX003 (ip), vehicle: saline 105 % of control

NCC(O)c1ccc(OCc2ccccc2)cc1 (centres undefined)
inactive: [4] 94 % of control | [5] 103 % of control | [6] 108 % of control

CN(C)c1nn[nH]n1
inactive: [7] 95 % of control | [8] 88 % of control | [9] 95 % of control

CC1(C)C=C(C(Br)c2ccc(Cl)cc2)C(=O)c2ccccc21 (centres undefined)
inactive: dose: 50.0 mg/kg/injection, schedule: Q01DX009 (ip), vehicle: Klucel (hydroxypropylcellulose) (HPC) 110 % of control | [14] 105 % of control | [7] 95 % of control | [15] 100 % of control | [8] 92 % of control

O=C1c2ccccc2C(=O)c2c(O)ccc(O)c21
inactive: [11] 94 % of control | [16] 106 % of control | dose: 100.0 mg/kg/injection, schedule: Q01DX009 (ip), vehicle: saline 102 % of control | [17] 101 % of control | dose: 200.0 mg/kg/injection, schedule: Q01DX009 (ip), vehicle: saline 102 % of control | [18] 101 % of control

CS(=O)(=O)OCCN(CCOS(C)(=O)=O)c1cccc(N)c1
inactive: dose: 0.22 mg/kg/injection, schedule: Q01DX001 (ip), vehicle: saline 105 % of control | dose: 0.33 mg/kg/injection, schedule: Q01DX001 (ip), vehicle: saline 105 % of control | dose: 0.5 mg/kg/injection, schedule: Q01DX001 (ip), vehicle: saline 97 % of control and 110 % of control | dose: 0.75 mg/kg/injection, schedule: Q01DX001 (ip), vehicle: saline 106 % of control | dose: 1.0 mg/kg/injection, schedule: Q01DX001 (ip), vehicle: saline 109 % of control | dose: 2.0 mg/kg/injection, schedule: Q01DX001 (ip), vehicle: saline 117 % of control | dose: 3.5 mg/kg/injection, schedule: Q01DX001 (ip), vehicle: saline 116 % of control | dose: 5.3 mg/kg/injection, schedule: Q01DX001 (ip), vehicle: saline 91 % of control
209 % of control and 86 % of control: dose: 8.0 mg/kg/injection, schedule: Q01DX001 (ip), vehicle: saline

Cc1ccc(S(=O)(=O)Nc2ccccc2-c2nc3cc(Cl)ccc3c(=O)o2)cc1
inactive: [16] 86 % of control | [17] 87 % of control | [18] 89 % of control

Oc1c(Cl)c2nc3ccccc3nc2c2ccccc12
inactive: [7] 95 % of control | [8] 97 % of control | [9] 98 % of control

CC(C)C(O)c1c[nH]c(=O)[nH]c1=O (centres undefined)
inactive: [14] 91 % of control | [15] 105 % of control | dose: 400.0 mg/kg/injection, schedule: Q01DX009 (ip), vehicle: Klucel (hydroxypropylcellulose) (HPC) 96 % of control
